According to patent US20110097380A1, “CLONIDINE FORMULATIONS HAVING ANTIMICROBIAL PROPERTIES” (Warsaw Orthopedic, Inc., priority 2009, published 2011):

Experiments:
Experiment in all cases: Film inoculated on Tryptic Soy Agar plate: growth, zone of inhibition, scraping/streak
Format in all cases: cell-based
Details in all cases: after 4 days
[1] = test system: Candida albicans ATCC 10231
Description: (§1) Each film sample was individually placed on the surface of a Tryptic Soy Agar (TSA) plate in an aseptic manner. Each film was individually inoculated with 1 mL of one of the three (3) challenge organisms shown below. For each challenge organism, one “Sample Film” and one “Control Film” were inoculated. Due to the anticipated slow absorption of the challenge inoculum by the test samples, the inoculum was dispensed onto each film sample very slowly. After inoculation, each sample was carefully moved to incubation at the temperature range appropriate for the inoculated challenge organism and incubated for four (4) days. Each day of incubation, all plates were removed from incubation for visual and stereoscopic evaluation. Upon evaluation, the presence or absence of growth on the plate and/or on the sample was noted. In addition, the sample was evaluated for the presence or absence of a zone of inhibition around the sample. The presence or absence of a zone was reported as “Z” for Zone (size in mm) or “NZ” for no zone present. [table] Additional Test Information: • G=Growth • NG=No Growth • Z=Zone (in mm) • NZ=No Zone • Additional Information/Observations: At the conclusion of the testing period, all test samples were individually removed from the agar surface and gently shaken to remove any excess moisture remaining on the surface of the sample. The samples were then individually examined under the stereoscope by a laboratory technician. […] Following the documentation of the observations above, each sample was scraped with an inoculating loop on the inoculated, top side of each sample to determine whether macroscopic growth could be visually observed. […] The following is a summary of findings from this portion of the test: […]

[2] = test system: Staphylococcus aureus ATCC 6538
Description: as §1

[3] = test system: Escherichia coli ATCC 8739
Description: as §1

Clc1cccc(Cl)c1N=C1NCCN1 [clonidine, 2,6-dichloro-N-2-imidazolidinyldenebenzenamine]
inhibited growth: growth of fungus (C. albicans) [1] | growth of gram positive bacteria (S. aureus) [2] | growth of gram negative bacteria (E. coli) [3]
